# Results: ChEMBL document CHEMBL1130568, “Antibody-mediated regio- and enantioselective resolution of a glycerol derivative” (Bioorg Med Chem Lett, 1997)
# Assay: Kinetic parameter for hydrolysis of 1 by Antibody 2D10 after addition of compound 12
# Format: ADME
smiles,measurement,value
CC(=O)O[C@@H](COCc1ccc([N+](=O)[O-])cc1)COP(=O)(O)CCCCCC(=O)O,Ki,2.8 µM
